Assay results from patent US9206128B2 (Constellation Pharmaceuticals, Inc., priority 2011, dated 2015).

Key:
[1] = molecular target: Y641N EZH2 (Homo sapiens, UniProt Q15910, Y641N); assay: Y641N EZH2 activity inhibition assay (as EZH2 assay, reconstituted H3K27Me2 oligonucleosomes as substrate); format: biochemical; details: Y641N EZH2 mutant enzyme
Procedure: (§1) EZH2 Assay: Assays were carried out by mixing rPRC2 together with biotinylated oligonucleosome substrates in the presence of the radio-labeled enzyme co-factor, S-adenosyl-L-methionine (^3H SAM) (Perkin Elmer) and monitoring the enzymatically mediated transfer of tritiated methyl groups from ^3H SAM to histone lysine residues. The amount of resulting tritiated methyl histone product was measured by first capturing the biotinylated oligonucleosomes in streptavidin (SAV) coated FlashPlates (Perkin Elmer), followed by a wash step to remove un-reacted ^3H SAM, and then counting on a TopCount NXT 384 well plate scintillation counter (Perkin Elmer). The final assay conditions for EZH2 were as follows: 50 mM Tris Buffer pH 8.5, 1 mM DTT, 69 μM Brij-35 detergent, 5.0 mM MgCl2, 0.1 mg/mL BSA, 0.2 μM ^3H SAM, 0.2 μM biotinylated oligonucleosomes, 3.6 μM H3K27me3 peptide and 2 nM EZH2.
(§2) A 12.5 μL volume of the HMT enzyme, H3K27me3 peptide and oligonucleosome substrate in assay buffer was added to each well of the assay plate using a Multidrop Combi (ThermoFisher). Compounds were pre-incubated with the enzyme for 20 min, followed by initiation of the methyltransferase reaction by addition of 12.5 μL of 3H SAM in assay buffer (final volume=25 μL). The final concentrations of compounds ranged from a top default concentration of 80 μM down to 0.16 μM in ten 2-fold dilution steps. Reactions were carried out for 60 minutes and quenched with 20 μL per well of 1.96 mM SAH, 50 mM Tris PH 8.5, 200 mM EDTA. Stopped reactions were transferred to SAV coated Flashplates (Perkin Elmer), incubated for 120 min, washed with a plate washer, and then read on the TopCount NXT (1.0 min/well) to measure the amount of methyl histone product formed during the reaction.

[2] = molecular target: EZH2 (Homo sapiens, UniProt Q15910); assay: EZH2 activity inhibition assay (rPRC2, 3H SAM, biotinylated oligonucleosomes, FlashPlate); format: biochemical; details: rPRC2, 2 nM EZH2, 0.2 μM 3H SAM, top concentration 80 μM
Procedure: as §1, with “Elmer).” for “Elmer). The final assay conditions for EZH2 were as follows: 50 mM Tris Buffer pH 8.5, 1 mM DTT, 69 μM Brij-35 detergent, 5.0 mM MgCl2, 0.1 mg/mL BSA, 0.2 μM ^3H SAM, 0.2 μM biotinylated oligonucleosomes, 3.6 μM H3K27me3 peptide and 2 nM EZH2.”
as §2, with “The final concentrations of compounds ranged from a top default concentration of 80 μM down to 0.16 μM in ten 2-fold dilution steps. Reactions were carried out for 60 minutes and quenched with 20 μL per well of 1.96 mM SAH, 50 mM Tris PH 8.5, 200 mM EDTA.” left out

Chain of Y641N EZH2 (Q15910 whole entry Y641N): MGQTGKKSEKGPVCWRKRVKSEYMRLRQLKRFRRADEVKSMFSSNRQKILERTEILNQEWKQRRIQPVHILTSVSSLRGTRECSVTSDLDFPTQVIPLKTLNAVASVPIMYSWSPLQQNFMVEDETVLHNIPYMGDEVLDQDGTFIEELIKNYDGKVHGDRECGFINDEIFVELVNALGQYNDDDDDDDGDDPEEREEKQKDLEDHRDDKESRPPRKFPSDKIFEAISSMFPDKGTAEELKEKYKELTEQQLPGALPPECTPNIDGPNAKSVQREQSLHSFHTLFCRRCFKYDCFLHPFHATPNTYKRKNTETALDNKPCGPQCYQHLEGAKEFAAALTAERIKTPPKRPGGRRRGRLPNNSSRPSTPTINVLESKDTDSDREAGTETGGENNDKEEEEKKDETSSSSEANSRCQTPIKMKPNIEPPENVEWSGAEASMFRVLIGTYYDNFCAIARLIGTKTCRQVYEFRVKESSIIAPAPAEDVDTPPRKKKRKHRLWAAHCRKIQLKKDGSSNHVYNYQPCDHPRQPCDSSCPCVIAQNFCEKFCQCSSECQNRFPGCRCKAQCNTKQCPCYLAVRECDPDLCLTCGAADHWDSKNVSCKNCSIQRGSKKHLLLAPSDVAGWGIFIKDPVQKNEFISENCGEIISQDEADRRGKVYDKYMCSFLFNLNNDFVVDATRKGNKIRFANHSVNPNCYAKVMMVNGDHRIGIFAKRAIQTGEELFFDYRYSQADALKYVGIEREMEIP
Chain of Y641N EZH2 (O75530 whole entry partner): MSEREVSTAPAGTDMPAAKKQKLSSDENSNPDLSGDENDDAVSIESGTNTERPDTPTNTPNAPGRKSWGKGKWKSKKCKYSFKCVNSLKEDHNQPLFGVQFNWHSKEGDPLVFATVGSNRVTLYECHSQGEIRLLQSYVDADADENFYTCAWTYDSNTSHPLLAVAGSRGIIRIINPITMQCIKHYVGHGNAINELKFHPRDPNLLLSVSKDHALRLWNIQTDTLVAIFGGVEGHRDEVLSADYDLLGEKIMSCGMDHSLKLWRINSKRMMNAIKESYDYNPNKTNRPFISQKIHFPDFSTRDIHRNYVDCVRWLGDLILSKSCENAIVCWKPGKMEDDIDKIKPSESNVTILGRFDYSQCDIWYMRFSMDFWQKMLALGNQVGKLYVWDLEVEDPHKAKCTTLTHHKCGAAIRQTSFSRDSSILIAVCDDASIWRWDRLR
Chain of Y641N EZH2 (Q15022 whole entry partner): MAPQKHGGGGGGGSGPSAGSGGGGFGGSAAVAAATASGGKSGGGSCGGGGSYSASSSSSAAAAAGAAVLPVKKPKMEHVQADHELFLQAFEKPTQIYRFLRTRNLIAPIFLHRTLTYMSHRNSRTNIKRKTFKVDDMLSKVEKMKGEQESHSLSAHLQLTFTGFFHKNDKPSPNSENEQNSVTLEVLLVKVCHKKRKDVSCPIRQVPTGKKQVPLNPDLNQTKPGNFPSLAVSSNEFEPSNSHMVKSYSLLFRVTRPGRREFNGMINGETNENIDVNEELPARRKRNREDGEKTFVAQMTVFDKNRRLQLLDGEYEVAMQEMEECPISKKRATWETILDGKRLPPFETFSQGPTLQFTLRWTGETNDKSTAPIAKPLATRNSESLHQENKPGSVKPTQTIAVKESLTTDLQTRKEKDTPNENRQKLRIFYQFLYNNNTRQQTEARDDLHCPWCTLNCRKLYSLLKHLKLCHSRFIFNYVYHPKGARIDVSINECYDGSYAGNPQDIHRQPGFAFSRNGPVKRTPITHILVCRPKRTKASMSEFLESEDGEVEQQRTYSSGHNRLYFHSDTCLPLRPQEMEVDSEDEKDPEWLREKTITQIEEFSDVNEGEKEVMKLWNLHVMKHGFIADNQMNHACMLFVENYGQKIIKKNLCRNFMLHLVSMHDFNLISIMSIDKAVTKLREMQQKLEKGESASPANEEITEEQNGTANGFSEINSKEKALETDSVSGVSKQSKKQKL
Chain of EZH2 (Q15910 whole entry): as the sequence (Q15910 whole entry Y641N) above, with N641Y counted along it
Chain of EZH2 (O75530 whole entry partner): as the sequence (O75530 whole entry partner) above
Chain of EZH2 (Q15022 whole entry partner): as the sequence (Q15022 whole entry partner) above

IC50 [1] [µM]	IC50 [2] [µM]	Structure (SMILES)
> 80	> 80	Cc1cc(C)c(CNC(=O)c2ccc(C(C)Oc3ccccc3)c(F)c2)c(=O)[nH]1 (single isomer, unassigned) [Compound I-160, (R)— or (S)-3-fluoro-N-((2-hydroxy-4,6-dimethylpyridin-3-yl)methyl)-4-(1-phenoxyethyl)benzamide]
< 1	< 1	Cc1cc(C)c(CNC(=O)c2ccc(C(C)Oc3ccccc3)c(F)c2)c(=O)[nH]1 (single isomer, unassigned) [Compound I-161, (S)— or (R)-3-fluoro-N-((2-hydroxy-4,6-dimethylpyridin-3-yl)methyl)-4-(1-phenoxyethyl)benzamide]
> 80	10 to 50	Cc1cc(C)c(CNC(=O)c2ccc(C(C)Oc3ccccc3)cc2)c(=O)[nH]1 (stereo in doubt) [Compound I-30, (S)—N-((2-hydroxy-4,6-dimethylpyridin-3-yl)methyl)-4-(1-phenoxyethyl)benzamide]
1 to 10	< 1	Cc1cc(C)c(CNC(=O)c2ccc(N(C)c3ccccc3)cc2)c(=O)[nH]1 [Compound I-13]
> 80	> 50	Cc1cc(C)c(CNC(=O)c2ccc(Oc3ncccn3)cc2)c(=O)[nH]1 [Compound I-14]
> 80	> 50	COc1ccnc(Oc2ccc(C(=O)NCc3c(C)cc(C)[nH]c3=O)cc2)n1 [Compound I-15]
10 to 50	1 to 10	Cc1cc(C)c(CNC(=O)c2ccc(Oc3ccccc3)nc2)c(=O)[nH]1 [Compound I-16]

Continued, molecule first:

Structure (SMILES)	IC50 [1] [µM]	IC50 [2] [µM]
Cc1cc(C)c(CNC(=O)c2ccc(Oc3ccccc3C#N)cc2)c(=O)[nH]1 [Compound I-2, 4-(2-cyanophenoxy)-N-((2-hydroxy-4,6-dimethylpyridin-3-yl)methyl)benzamide]	10 to 50	1 to 10
Cc1cc(C)c(CNC(=O)c2ccc(COc3cccc(-c4ccc(N)nc4)c3)cc2)c(=O)[nH]1 [Compound I-3, 4-((3-(6-aminopyridin-3-yl)phenoxy)methyl)-N-((2-hydroxy-4,6-dimethylpyridin-3-yl)methyl)benzamide]	1 to 10	< 1
CCc1cccc(Oc2ccc(C(=O)NCc3c(C)cc(C)[nH]c3=O)cc2C)c1C#N [Compound I-4, 4-(2-cyano-3-ethylphenoxy)-N-((2-hydroxy-4,6-dimethylpyridin-3-yl)methyl)-3-methylbenzamide]		1 to 10
Cc1cc(C)c(CNC(=O)c2ccc(Oc3cccc(-c4cn[nH]c4)c3C#N)c(Cl)c2)c(=O)[nH]1 [Compound I-5, 3-chloro-4-(2-cyano-3-(1H-pyrazol-4-yl)phenoxy)-N-((2-hydroxy-4,6-dimethylpyridin-3-yl)methyl)benzamide]		1 to 10
Cc1cc(C)c(CNC(=O)c2ccc(Oc3cccc(-c4ccncc4)c3C#N)c(Cl)c2)c(=O)[nH]1 [Compound I-6, 3-chloro-4-(2-cyano-3-(pyridin-4-yl)phenoxy)-N-((2-hydroxy-4,6-dimethylpyridin-3-yl)methyl)benzamide]		1 to 10
Cc1cc(C)c(CNC(=O)c2ccc(Oc3ccccc3-c3ccncc3)c(Cl)c2)c(=O)[nH]1 [Compound I-7, 3-chloro-N-((2-hydroxy-4,6-dimethylpyridin-3-yl)methyl)-4-(2-(pyridin-4-yl)phenoxy)benzamide]		1 to 10
Cc1cc(C)c(CNC(=O)c2ccc(Oc3ccccc3C#N)c(Cl)c2)c(=O)[nH]1 [Compound I-10, 3-chloro-4-(2-cyanophenoxy)-N-((2-hydroxy-4,6-dimethylpyridin-3-yl)methyl)benzamide]	1 to 10	1 to 10
Cc1cc(C)c(CNC(=O)c2ccc(COc3ccccc3)cc2)c(=O)[nH]1 [Compound I-11, N-((2-hydroxy-4,6-dimethylpyridin-3-yl)methyl)-4-(phenoxymethyl)benzamide]	1 to 10	1 to 10
Cc1cc(C)c(CNC(=O)c2ccc(OCc3ccccc3)cc2)c(=O)[nH]1 [Compound I-12, 4-(benzyloxy)-N-((2-hydroxy-4,6-dimethylpyridin-3-yl)methyl)benzamide]	10 to 50	1 to 10
